By IC50 is commonly meant the concentration at which inhibition is half-maximal. A lower IC50 goes with greater potency in that assay.

In brackets after ≈: the same amount, converted by molar mass. Bounds are passed on as bounds.

Data set [1] concerns HepG2 cells. Nature of the data set: MTT anti-proliferative assay, HepG2. In kind it is cell-based, human. The settings on record: for Cytotoxicity IC50, HepG2: human, 72 h. Here is the method:
(§1) All of the cells were incubated at 37 °C in a humidified atmosphere composed of 95% air and 5% CO2. The cell viability was determined by measuring the ability of cells to transform MTT (Genview, Houston, TX, USA) to a purple formazan dye. The cells were seeded in 96-well tissue culture plates at 2.5 × 10^3 cells/well for 24 h. […] After incubation, 20 μL/well of MTT solution (5 mg/mL phosphate buffered saline) were added and incubated for 5 h. The medium was aspirated and replaced with 100 μL/well of DMSO to dissolve the formazan salt. The color intensity of the formazan solution, which reflects the cell growth condition, was measured at 570 nm using a microplate spectrophotometer (SpectroAma™ 250, Winooski, VT, USA).

Data set [2] can be described thus: MTT anti-proliferative assay, L02. In kind it is cell-based. The settings on record: human. The protocol: as §1
For data set [3], the system named is SW480 cells. Nature of the data set: MTT anti-proliferative assay, SW480. In kind it is cell-based, human. The note with it: for Cytotoxicity IC50, SW480: human, 72 h. The protocol:
as §1

In data set [4] the test system is U87 cells. Nature of the data set: MTT anti-proliferative assay, U87. In kind it is cell-based, human. The settings on record: for Cytotoxicity IC50, U87: human, 72 h. Here is the method:
as §1
(In general: Tetrazolium dyes change colour on reduction, which living cells bring about.)

The test system of data set [5] is MCF-7 cells. In words: MTT anti-proliferative assay, MCF-7. The note with it: for Cytotoxicity IC50, MCF-7: human, 72 h. In kind it is cell-based, human. Here is the method:
as §1

The test system of data set [6] is HepG2 cells. Nature of the data set: Annexin V-FITC/PI flow cytometry apoptosis analysis. In kind it is cell-based, human. The settings on record: 72 h; for percentage of early apoptotic cells: mean; for Q4 (lower right, early apoptotic cells), representative dot plot: Figure 3 picture. Here is the method:
The apoptotic cells were quantified using an Annexin V-FITC (Sigma-Aldrich, USA) Apoptosis Detection Kit according to the manufacturer’s instructions. […] Five μL of Annexin V-fluorescein isothiocyanate (FITC) and 5 μL of PI were added. The analysis was performed with a FACScan flow cytometer (Coulter Epics Elite, Miami, FL, USA). The cells in the FITC-positive and PI-negative fraction were regarded as apoptotic cells.
(A flow cytometer gives signals particle by particle.)

Data set [7] relates to HepG2 cells. In words: Hoechst33342 staining, nuclear damage observation. In kind it is cell-based, human. The note with it: HepG2, 3, 6, 12 μg/mL, 72 h. Here is the method:
Apoptotic nuclear morphology was visualized by the Hoechsst33342 staining technique. Cells were fixed with 3.7% of paraformaldehyde for 10 min at room temperature and washed three times with PBS. Thus, paraformaldehyde-fixed cells were stained using Hoechsst33342 (10 μg/mL) in the dark for 10 min. After washing three times with PBS, cells were visualized using fluorescence microscope.

Data set [8] concerns caspase-3. Nature of the data set: Western blot, cleaved caspase-3 in HepG2. In kind it is cell-based, human. The note with it: HepG2, 3, 6, 12, and 24 μg/mL, 72 h. The protocol:
(§2) The protein was extracted with RIPA buffer and quantified using the Bradford method. Equal amounts of protein were loaded into each well. After SDS-PAGE, the proteins were transferred to a polyvinylidene difluoride (PVDF) membrane. The membrane was blocked with 5% non-fat milk for 1 h and incubated with a primary antibody (Cell Signaling Technology, Danvers, MA, USA, Rabbit monoclonal antibody, 1:1000) at 4 °C overnight. After washing two times with TBST (Tris-buffered saline with 0.1% Tween-20) buffer, the membrane was incubated with a secondary antibody (goat-anti-rabbit horseradish peroxidase (HRP)-conjugated 1:15,000) at room temperature for 1 h. The membranes were washed three times (8 min each time) with TBST. The intensity of the specific immunoreactive bands was detected through enhanced chemiluminescence (ECL).

Data set [9] deals with caspase-9. In words: Western blot, cleaved caspase-9 in HepG2. The note with it: HepG2, 3, 6, 12, and 24 μg/mL, 72 h. In kind it is cell-based, human. Here is the method:
as §2
On the technique in general: A western blot detects proteins with antibodies after separation by electrophoresis.

Data set [10] has as its system PARP. Nature of the data set: Western blot, cleaved PARP in HepG2. In kind it is cell-based, human. The note with it: HepG2, 3, 6, 12, and 24 μg/mL, 72 h. The protocol:
as §2

Data set [11] relates to human renal cell carcinoma GRC-1. The note with it: earlier research; cited from earlier work.
The test system of data set [12] is hepatocellular carcinoma HepG2. The note with it: earlier research; cited from earlier work.

For `CC(C)C[C@@H]1NC(=O)[C@H](CC(C)C)N(C)C(=O)[C@H](CC(C)C)NC(=O)[C@H](CC(C)C)N(C)C(=O)[C@@H](Cc2ccccc2)NC1=O` [Compound A2, Cyclo(D-Phe-N-Me-Leu-Leu-N-Me-Leu-D-Leu)], in data set [1], the “Cytotoxicity IC50, HepG2” value is 4.56 ± 0.20 µg/mL. The IC50 at 72 h in data set [2] was over 40 µg/mL. The “Cytotoxicity IC50, SW480” value in data set [3] was 5.75 ± 0.19 µg/mL. For the same compound, in data set [4], the “Cytotoxicity IC50, U87” value was over 40 µg/mL. Further, the “Cytotoxicity IC50, MCF-7” value in data set [5] is 9.64 ± 0.35 µg/mL.

Turning to `CC(C)C[C@@H]1NC(=O)[C@@H](CC(C)C)N(C)C(=O)[C@H](CC(C)C)NC(=O)[C@@H](Cc2ccccc2)N(C)C(=O)[C@H](CC(C)C)NC1=O` [Compound A3, Cyclo(Me-D-Leu-Leu-Leu-Me-D-Phe-Leu)], in data set [1], the “Cytotoxicity IC50, HepG2” value is 5.58 ± 0.11 µg/mL. Further, the IC50 at 72 h in data set [2] is over 40 µg/mL. Moreover, in data set [3], the “Cytotoxicity IC50, SW480” value was 10.20 ± 0.15 µg/mL. Moreover, the “Cytotoxicity IC50, U87” value in data set [4] turned out to be 20.16 ± 0.30 µg/mL. In addition, in data set [5], the “Cytotoxicity IC50, MCF-7” value is 7.23 ± 0.27 µg/mL.

Consider `CC(C)C[C@@H]1NC(=O)[C@H](CC(C)C)N(C)C(=O)[C@H](CC(C)C)NC(=O)[C@H](CC(C)C)N(C)C(=O)[C@H](Cc2ccccc2)NC1=O` [Compound A1, Cyclo(Phe-N-Me-Leu-Leu-N-Me-Leu-Leu)], for which the “Cytotoxicity IC50, HepG2” value in data set [1] stood at 4.11 ± 0.16 µg/mL. Moreover, the IC50 at 72 h in [2] is over 40 µg/mL. In addition, the “Cytotoxicity IC50, SW480” value in [3] came to 12.37 ± 1.01 µg/mL. In [4], the “Cytotoxicity IC50, U87” value is over 40 µg/mL. In addition, the “Cytotoxicity IC50, MCF-7” value in [5] was 9.40 ± 0.43 µg/mL.

On to Galaxamide, for which the “percentage of early apoptotic cells” value in data set [6] (HepG2, 6 μg/mL) was 2.3% ± 0.3%; in data set [6] (HepG2, 24 μg/mL), 18.8% ± 1.9%. For the same compound, the “Q4 (lower right, early apoptotic cells), representative dot plot” value in data set [6] (HepG2, 6 μg/ml) was determined as 2.1%; in [6] (HepG2, 12 μg/ml), 13.4%; in [6] (HepG2, 24 μg/ml), 18.8%. The “nuclear morphology (Hoechst33342)” value in [7] is “chromatin condensation at the edges of the nuclear membrane and nuclear fragmentation”. In addition, in [8], the “cleaved caspase-3 expression” value is reported as “significantly increased”. In data set [9], the “cleaved caspase-9 expression” value is “significantly increased”. The “cleaved PARP expression” value in [10] is on record as “significantly increased”. Moreover, the “antitumor activity against GRC-1” value in [11] is given as “significant antitumor activity”. Moreover, the “antitumor activity against HepG2” value in data set [12] was “significant antitumor activity”.

Turning to `CC(C)C[C@@H]1NC(=O)[C@@H](CC(C)C)NC(=O)[C@@H](CC(C)C)N(C)C(=O)[C@@H](CC(C)C)NC(=O)[C@@H](Cc2ccccc2)N(C)C1=O` [Compound A5, Cyclo(Leu-D-N-Me-Phe-D-Leu-D-N-Me-Leu-D-Leu)], in data set [1], the “Cytotoxicity IC50, HepG2” value was determined as 1.46 ± 0.09 µg/mL. The “fold more active than galaxamide, HepG2” value in [1] (ratio of IC50 values) turned out to be 3.17 fold. This compound returned an IC50 at 72 h in data set [2] of 10.6 ± 0.6 µg/mL (≈ 16.8 µM). Moreover, the “Cytotoxicity IC50, SW480” value in [3] was 5.10 ± 0.12 µg/mL. Further, in data set [3] (ratio of IC50 values), the “fold more active than galaxamide, SW480” value amounted to 8.59 fold. The “Cytotoxicity IC50, U87” value in [4] was determined as 1.85 ± 0.11 µg/mL. Also, the “fold more active than galaxamide, U87” value in data set [4] (ratio of IC50 values) is recorded as 5.73 fold. In addition, the “Cytotoxicity IC50, MCF-7” value in data set [5] was found to be 4.18 ± 0.15 µg/mL. In addition, in data set [5] (ratio of IC50 values), the “fold more active than galaxamide, MCF-7” value worked out at 3.37 fold. Also, the “percentage of early apoptotic cells” value is 6.6% ± 1.7% in data set [6] (HepG2, 3 μg/mL) and 22.4% ± 2.4% in [6] (HepG2, 12 μg/mL). The “Q4 (lower right, early apoptotic cells), representative dot plot” value in data set [6] (HepG2, 3 μg/ml) is given as 6.6%; in data set [6] (HepG2, 6 μg/ml), 19.9%; in data set [6] (HepG2, 12 μg/ml), 22.4%. In addition, the “nuclear morphology (Hoechst33342)” value in [7] was “chromatin condensation at the edges of the nuclear membrane and nuclear fragmentation”. The “cleaved caspase-3 expression” value in [8] is “significantly increased”. For the same compound, the “cleaved caspase-9 expression” value in [9] is recorded as “significantly increased”. Besides, in data set [10], the “cleaved PARP expression” value is “significantly increased”.

Turning to `CC(C)C[C@@H]1NC(=O)[C@@H](CC(C)C)N(C)C(=O)[C@H](CC(C)C)NC(=O)[C@@H](Cc2ccccc2)N(C)C(=O)[C@@H](CC(C)C)NC1=O` [Compound A4, Cyclo(Me-D-Leu-Leu-D-Leu-Me-D-Phe-Leu)], in [1], the “Cytotoxicity IC50, HepG2” value was found to be 6.27 ± 0.13 µg/mL. In [2], this compound returned a half-inhibitory concentration (IC50) at 72 h of over 40 µg/mL. In data set [3], the “Cytotoxicity IC50, SW480” value was 8.60 ± 0.08 µg/mL. Further, the “Cytotoxicity IC50, U87” value in [4] amounted to 2.82 ± 0.10 µg/mL. In data set [5], the “Cytotoxicity IC50, MCF-7” value came to 6.56 ± 0.18 µg/mL.

Values taken from article PMC4145329 (Marine Drugs, 2014).
